Results from patent US20230019236A1, “PROTEIN TYROSINE PHOSPHATASE INHIBITORS AND METHODS OF USE THEREOF” (Calico Life Sciences LLC, priority 2019, published 2023).
Read-outs that look alike come from different tables or passages of the source.

Columns and labels:
[1] = target: T1, His tagged PTPN2 (TC45) protein (Homo sapiens, UniProt P17706); assay: Mobility Shift Assay used to determine potency of PTPN2 inhibitors; assay type: biochemical; settings: Table 2; read-out: PTPN2 MSA IC50
T1 construct: made in house
T1 sequence (P17706 with tags, fused parts or gaps isoform P17706-2): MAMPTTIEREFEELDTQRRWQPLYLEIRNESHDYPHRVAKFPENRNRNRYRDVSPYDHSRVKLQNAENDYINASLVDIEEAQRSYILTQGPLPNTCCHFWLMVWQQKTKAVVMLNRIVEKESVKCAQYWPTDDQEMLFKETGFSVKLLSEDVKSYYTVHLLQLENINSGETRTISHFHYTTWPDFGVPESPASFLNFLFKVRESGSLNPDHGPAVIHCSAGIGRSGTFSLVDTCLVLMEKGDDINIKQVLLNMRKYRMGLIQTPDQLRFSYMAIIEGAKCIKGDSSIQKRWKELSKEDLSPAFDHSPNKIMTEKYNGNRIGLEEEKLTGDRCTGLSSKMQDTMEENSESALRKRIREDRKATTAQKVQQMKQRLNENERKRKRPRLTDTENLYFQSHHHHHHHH
How it was run: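 His-tagged human PTPN2 (TC45), 0.5 nM, preincubated 10 min RT with compound (12-point, 1:3 dilution) in HEPES pH 7.5 buffer with EDTA/DTT; 2 µM OG488-labelled phospho-insulin-receptor peptide added, 10 min RT, then quenched. Dephosphorylation read by microfluidic mobility shift (ex 488/em 530 nm); IC50 from % inhibition.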

[2] = target: T2, His tagged full-length PTP1B protein (Homo sapiens, UniProt P18031); assay: Mobility Shift Assay (MSA) used to determine potency of PTP1B inhibitors; assay type: biochemical; settings: Table 2
T2 construct: made in house
T2 sequence (P18031 with tags, fused parts or gaps): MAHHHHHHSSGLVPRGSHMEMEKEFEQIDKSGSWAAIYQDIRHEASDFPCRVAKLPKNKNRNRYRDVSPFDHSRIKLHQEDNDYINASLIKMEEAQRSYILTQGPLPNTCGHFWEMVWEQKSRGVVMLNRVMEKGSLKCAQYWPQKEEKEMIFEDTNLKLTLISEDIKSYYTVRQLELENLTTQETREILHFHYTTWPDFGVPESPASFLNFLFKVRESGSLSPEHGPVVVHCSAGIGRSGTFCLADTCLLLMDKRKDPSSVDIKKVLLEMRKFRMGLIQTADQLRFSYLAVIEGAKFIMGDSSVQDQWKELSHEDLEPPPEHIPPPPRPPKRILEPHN
Method: The enzymatic assay used to determine activity is a mobility shift assay using a LabChip EZ Reader by Caliper Life Sciences. The enzymatic reaction was carried out in assay buffer (50 mM HEPES pH 7.5, 1 mM EGTA, 10 mM EDTA, 0.01% Tween® 20, and 2 mM DTT). […] The enzyme (at 0.5 nM) was incubated with compound for 10 minutes at room temperature. […] The % inhibition was then used to calculate the IC50 values.

[3] = system: B16F10 mouse melanoma cells; assay: B16F10 IFNγ-induced cellular growth inhibition assay; assay type: cell-based; settings: for inhibition at 33 µM: Mus musculus, B16-F10, compound 33 μM, Table 3
Method: Example 294: B16F10 IFNγ-Induced Cellular Growth Inhibition Assay
B16F10 mouse melanoma cells (ATCC Cat# CRL-6475, Manassas, Va.) were seeded at a density of 500 cells per well in a 384-well clear bottom plate (Corning Cat#3765, Corning, N.Y.) in 25 μL total volume of DMEM+10% FBS (Sigma Cat# D6429 and Sigma Cat# F4135, St. Louis, MO). Cells were allowed to adhere overnight at 37° C. +5% CO2. On the following day, 12.5 μL of mouse IFNγ (RD systems Cat# 485-MI/CF, Minneapolis, Minn.) was added to half of the plate (columns 13-24) at a concentration of 2 ng/mL for a final assay concentration of 0.5 ng/mL of IFNγ. Media only (12.5 μL of DMEM+10% FBS) was added to the remainder of the plate (columns 1-12). Next, compounds resuspended in DMSO (Sigma Cat# D2650) at 100 mM were diluted in semi-log dilutions in DMSO ranging from 100 mM to 0.001 mM and DMSO only controls were included. The compound/DMSO dilutions were further diluted 1:250 in DMEM+10% FBS, and 12.5 μL of these dilutions were added in triplicates to cells of both treatment arms (with and without IFNγ). Final compound concentrations ranged from 100 μM to 0.001 μM with a final DMSO concentration of 0.1%. Compounds were only dosed in the inner 240 wells, avoiding the outer 2-well perimeter of the plate to minimize edge effects. Finally, the plate was loaded into an IncuCyte® S3 Live Cell Analysis System (Essen Bioscience-Sartorius, Ann Arbor, Mich.) maintained in a 37° C. +5% CO2 incubator, allowed to equilibrate for 2 hours, and imaged every 6 hours for 5 days. Confluence over time for compound dilutions in the presence and absence of IFNγ was measured. Growth inhibition values were obtained when the “DMSO/no IFNγ” control reached confluence >95%. At these time points, the percent growth inhibition of each compound at the indicated concentration was calculated relative to the “DMSO/with IFNγ” control.

[4] = system: Pan T cells isolated from C57BL6 splenocytes; assay: T cell activation assay (CD25/CD69 flow cytometry); assay type: cell-based, mouse; settings: with TCR stimulation; Table 5
Method: Example 295: T cell activation and function assays
Pan T cells were isolated from C57BL6 splenocytes using a MACS Pan T cell isolation kit II (Miltenyi Biotec, Auburn, Calif.) according to the manufacturer's instructions. Isolated T cells (200,000 cells/well in a 96 well flat-bottom plate) were cultured in RPMI 1640 supplemented with 10% FBS, […] 2-mercatoethanol, 100 U/mL penicillin, and 100 μg/mL streptomycin, and incubated with the indicated concentration of compound or DMSO in duplicates. After 1 hour, mouse T cell activator CD3/CD28 Dynabeads (ThermoFisher Scientific, Waltham, Mass.) were added at a 1:5 beads to cells ratio to stimulate the T cells for 2 or 3 days as outlined below. T cells with or without compound were incubated in the absence of T cell activator beads (media only) as control.
After 2 days of stimulation, activation status of T cells was assessed by flow cytometry. T cells were first subjected to Zombie Violet™ Fixable Viability dye (BioLegend, San Diego, Calif.) for dead cell exclusion, washed and then stained with BUV805 labeled anti-CD8, APC-R700 labeled anti-CD25 (both from BD Biosciences, San Jose, Calif.) and PE labeled anti-CD69 (BioLegend, San Diego, Calif.) antibodies. After staining, cells were fixed with 2% paraformaldehyde and acquired on a BD LSRFortessa™ X-20 flow cytometer (BD Biosciences, San Jose, Calif.) using BD FACSDiva™ software. Data was analyzed using FlowJo V10 (Flow Jo LLC, Ashland, OR). Dead cells were excluded and frequencies of activated CD8 T cells was reported as the frequency of CD25+ or CD69+ cells within the CD8+ population. The expression level of CD25 and CD69 indicates the activation status of cells on a per cell basis and was evaluated by the mean fluorescence intensities (MFI) of CD25 and CD69.

[5] = system: MC-38 murine colon adenocarcinoma; assay: In vivo efficacy in MC38 syngeneic tumor model; settings: 300 mg/kg/dose oral BID for 21 days
Method: All experiments were conducted in compliance with AbbVie's Institutional Animal Care and Use Committee and the National Institutes of Health Guide for Care and Use of Laboratory Animals guidelines in a facility accredited by the Association for the Assessment and Accreditation of Laboratory Animal Care. […] The mice were group-housed 10 per cage. Food and water were available ad libitum. Animals were acclimated to the animal facilities for a period of at least one week prior to commencement of experiments. Animals were tested in the light phase of a 12-hour light:12-hour dark schedule (lights on 0600 hours).
Cells were grown to passage 3 in vitro. […] The injection volume was 0.1 mL and was composed of a 1:1 mixture of S-MEM and Matrigel® (Corning, N.Y., USA). […] Following size match, treatments were initiated on the same day. […] Compound 124 was formulated in 5% DMSO, 5% Tween 80 (Polysorbate 80), 20% PEG-400 and 70% D5W (5% dextrose in water) and was dosed at 10 mL/kg. […] Tumor volume was calculated three times weekly. Measurements of the length (L) and width (W) of the tumor were taken via electronic caliper and the volume was calculated according to the following equation: V=L×W^2/2 using Study Director Version 3.1.399.22 (Studylog Systems, Inc, CA, USA). […] Reported TGIMax is the largest TGI value for any timepoint that tumors volumes were collected for that treatment group.

[6] = +0.5 ng/mL IFNγ, relative to DMSO/with IFNγ control, read-out: % B16F10 growth inhibition (+0.5 ng/mL IFNγ) @ 33 μM
[7] = no IFNγ, read-out: % B16F10 growth inhibition (no IFNγ) @ 33 μM

SMILES | IC50 [2] | IC50 [1] | inhibition at 33 µM [3, 6] | inhibition at 33 µM [3, 7] | T cell activation and T cell function [4] | growth inhibition in the absence of IFNγ ([3]; absence of IFNγ) | tolerability [5]
COc1ccc2cc(O)c(N3CC(=O)NS3(=O)=O)c(F)c2c1 [Compound 124, 5-(1-fluoro-3-hydroxy-7-methoxynaphthalen-2-yl)-1λ^6,2,5-thiadiazolidine-1,1,3-trione] | 1 to 10 nM | – | – | – | increased both T cell activation and T cell function | no observed growth inhibition | well tolerated, without obvious adverse health events
CC(C)(O)CCOc1ccc2cc(O)c(N3CC(=O)NS3(=O)=O)c(F)c2c1 [Compound 182, 5-[1-fluoro-3-hydroxy-7-(3-hydroxy-3-methylbutoxy)naphthalen-2-yl]-1λ^6,2,5-thiadiazolidine-1,1,3-trione] | – | – | – | – | increased both T cell activation and T cell function | – | well tolerated, without obvious adverse health events
CP(C)(=O)N1CC=C(c2ccc3cc(O)c(N4CC(=O)NS4(=O)=O)c(F)c3c2)C1 [Compound 168, 5-{7-[1-(dimethylphosphoryl)-2,5-dihydro-1H-pyrrol-3-yl]-1-fluoro-3-hydroxynaphthalen-2-yl}-1λ^6,2,5-thiadiazolidine-1,1,3-trione] | 1 to 10 nM | – | > 90% | < 25% | – | – | –
O=C1CN(c2c(O)cc3ccc(C4=CCN(S(=O)(=O)C5CC5)C4)cc3c2F)S(=O)(=O)N1 [Compound 113, 5-{7-[1-(cyclopropanesulfonyl)-2,5-dihydro-1H-pyrrol-3-yl]-1-fluoro-3-hydroxynaphthalen-2-yl}-1λ^6,2,5-thiadiazolidine-1,1,3-trione] | < 1 nM | – | – | – | increased both T cell activation and T cell function | – | –
CC(C)NC(=O)Oc1ccc2cc(O)c(N3CC(=O)NS3(=O)=O)c(F)c2c1 [Compound 103, 8-fluoro-6-hydroxy-7-(1,1,4-trioxo-1λ^6,2,5-thiadiazolidin-2-yl)naphthalen-2-yl propan-2-ylcarbamate] | 10 to 100 nM | – | 60 to 90% | < 25% | – | – | –
O=C1CN(c2c(O)cc3ccc(CC4CCN(S(=O)(=O)C5CC5)CC4)cc3c2F)S(=O)(=O)N1 [Compound 257, 5-(7-{[1-(cyclopropanesulfonyl)piperidin-4-yl]methyl}-1-fluoro-3-hydroxynaphthalen-2-yl)-1λ^6,2,5-thiadiazolidine-1,1,3-trione] | 10 to 100 nM | 1 to 10 nM | 25 to 59% | < 25% | – | – | –
CC(C)CCOc1cc2c(F)c(N3CC(=O)NS3(=O)=O)c(O)cc2cc1O [Compound 361, 5-[1-fluoro-3,6-dihydroxy-7-(3-methylbutoxy)naphthalen-2-yl]-1λ^6,2,5-thiadiazolidine-1,1,3-trione] | < 1 nM | < 1 nM | – | – | – | – | –

Now from value to compound, other results behind:

IC50 [2] | SMILES | IC50 [1] | inhibition at 33 µM [3, 6] | inhibition at 33 µM [3, 7] | T cell activation and T cell function [4] | growth inhibition in the absence of IFNγ ([3]; absence of IFNγ) | tolerability [5]
1 to 10 nM | CC(C)(O)CCCc1ccc2cc(O)c(N3CC(=O)NS3(=O)=O)c(F)c2c1 [Compound 154, 5-[1-fluoro-3-hydroxy-7-(4-hydroxy-4-methylpentyl)naphthalen-2-yl]-1λ^6,2,5-thiadiazolidine-1,1,3-trione] | < 1 nM | 60 to 90% | < 25% | – | – | –
10 to 100 nM | O=C1CN(c2c(O)cc3ccc(OC(F)F)cc3c2F)S(=O)(=O)N1 [Compound 260, 5-[7-(difluoromethoxy)-1-fluoro-3-hydroxynaphthalen-2-yl]-1λ^6,2,5-thiadiazolidine-1,1,3-trione] | – | – | – | increased both T cell activation and T cell function | – | –
1 to 10 nM | O=C1CN(c2c(O)cc3ccc(OCCOC(F)(F)F)cc3c2F)S(=O)(=O)N1 [Compound 354, 5-{1-fluoro-3-hydroxy-7-[2-(trifluoromethoxy)ethoxy]naphthalen-2-yl}-1λ^6,2,5-thiadiazolidine-1,1,3-trione] | 1 to 10 nM | – | – | – | – | –
1 to 10 nM | C[C@](O)(CC#N)CCOc1ccc2cc(O)c(N3CC(=O)NS3(=O)=O)c(F)c2c1 [Compound 347, (3S)-5-{[8-fluoro-6-hydroxy-7-(1,1,4-trioxo-1λ^6,2,5-thiadiazolidin-2-yl)naphthalen-2-yl]oxy}-3-hydroxy-3-methylpentanenitrile] | < 1 nM | – | – | – | – | –
